Experiment [1] relates to calpain in washed human platelets. The experiment is classed as cell-based.
The next experiment relates to talin in human platelets. The experiment is classed as cell-based.
The subject of experiment [2] is SH-SY5Y cells. The experiment is classed as cell-based, human.
In experiment [3] the test system is SH-SY5Y cells. The experiment is classed as cell-based, human. This is another data set of the same source.
Experiment [4] has as its system SH-SY5Y cells. The experiment is classed as cell-based, human. This is another data set of the same source.
Experiment [5] relates to human platelets. The experiment is classed as cell-based. The settings on record: fibrinogen 0.5 to 2 mg/ml before PrP(106–126) 20 µM; 1 mM Ca2+.
Experiment [6] concerns human platelets. The experiment is classed as cell-based. The settings on record: fibrinogen 2 mg/ml; PrP 20 µM.
In experiment [7] the target is fibrinogen from human plasma (human, UniProt P02671 36-866; P02675 45-491; P02679 27-453). Kind of experiment: SPR. The settings on record: both partners purified.

“And” between values parts separate entries of the source, which are not always exact repeats. Identical values can stand only once.

As for `CNc1ccc2oc(C[C@H]3O[C@@]4(CC[C@H]3C)O[C@H]([C@H](C)C(=O)c3ccc[nH]3)[C@H](C)C[C@H]4C)nc2c1C(=O)O` [A23187, reference compound], the “calpain activity in platelets (in words)” value in experiment [1] is “significant enhancement in calpain activity”. Moreover, the “proteolysis of talin (235 kDa to 190 kDa fragment)” value in the experiment on talin in human platelets is “complete proteolysis of talin”.

Take `C[S+](C)[O-]` [DMSO, dimethylsulfoxide, reference compound]: the “Cell line MTT (viability, Vehicle = 100)” value with SH-SY5Y cells [2] was 15.72 and 26.11 and 18.47.

Consider “fibrinogen: thrombogenic plasma protein fibrinogen from human plasma (Sigma #F4883)”, for which, in experiment [1], the “drop in calpain activity on fibrinogen preincubation” value turned out to be 30%. In addition, the “Cell line MTT (viability, Vehicle = 100)” value with SH-SY5Y cells [2] was 101.27 and 76.19 and 118.37. Moreover, in the experiment with SH-SY5Y cells [2] (48 h), the “effect of fibrinogen preincubation on PrP-induced loss of viability” value is on record as “completely restored”. The “effect of fibrinogen on prion-mediated cleavage of talin” value in the experiment with talin in human platelets (fibrinogen 2 mg/ml preincubation, immunoblot, 190 kDa product) is “completely prevented prion-mediated cleavage of talin”. The “attenuation of the rise in ΔΨm on preincubation with fibrinogen” value in the experiment on SH-SY5Y cells [3] was found to be 1.7 fold. Besides, the “abrogation of the PrP-induced FSC increase by prior fibrinogen treatment” value in the experiment on SH-SY5Y cells [4] is given as 16.34% ± 17.85. In the experiment with human platelets [5], the “effect of fibrinogen pretreatment on prion-induced rise in [Ca2+]i” value is “attenuated prion-induced rise in [Ca^2+]i in a dose-dependent manner”. For the same molecule, the “effect of prior fibrinogen exposure on prion-induced extracellular vesicle shedding” value in the experiment with human platelets [6] was “completely thwarted”.

B1: PrP(106–126) (peptide)
peptide: KTNMKHMAGAAAAGAVVGGLG
notes: also called prion peptide; prion
As usually defined, the Kd is the concentration at which binding is half-saturated. As to B1, in experiment [7], binding was characterised by a dissociation constant (Kd) of 512 ± 89 nM.
